According to the NIST ThermoML archive (doi:10.1007/s10765-010-0766-0):

Assay: wn = mass fraction of the nth substance listed
Conditions: Liquid, Pycnometric method, w2 = 0.4981

FC(F)C(F)(F)F [pentafluoroethane] + FCF
Conditions	mass density [kg/m3]
332.15 K, 7002 kPa	921.1
333.15 K, 7333 kPa	920.9
333.15 K, 7355 kPa	921
333.15 K, 7370 kPa	921.1
334.15 K, 7700 kPa	920.8
334.15 K, 7723 kPa	920.9
334.15 K, 7736 kPa	921
335.15 K, 8069 kPa	920.7
335.15 K, 8090 kPa	920.8
335.15 K, 8104 kPa	920.9
336.15 K, 8438 kPa	920.7
336.15 K, 8457 kPa	920.7
336.15 K, 8472 kPa	920.8
337.15 K, 8807 kPa	920.6
337.15 K, 8826 kPa	920.6
337.15 K, 8840 kPa	920.8
338.15 K, 9176 kPa	920.5
338.15 K, 9194 kPa	920.5
338.15 K, 9209 kPa	920.7
339.15 K, 9546 kPa	920.4
339.15 K, 9563 kPa	920.4
339.15 K, 9579 kPa	920.6
340.15 K, 9916 kPa	920.3
340.15 K, 9933 kPa	920.3
340.15 K, 9949 kPa	920.5
341.15 K, 10286 kPa	920.3
341.15 K, 10302 kPa	920.2
341.15 K, 10320 kPa	920.4
342.15 K, 10657 kPa	920.2
342.15 K, 10672 kPa	920.1
342.15 K, 10691 kPa	920.4
343.15 K, 11028 kPa	920.1
343.15 K, 11043 kPa	920.1
343.15 K, 11061 kPa	920.3
344.15 K, 11399 kPa	920.1
344.15 K, 11413 kPa	920
344.15 K, 11431 kPa	920.2
345.15 K, 6187 kPa	774
345.15 K, 11770 kPa	920
345.15 K, 11784 kPa	919.9
345.15 K, 11802 kPa	920.1
346.15 K, 6420 kPa	774.1
346.15 K, 12143 kPa	919.9
346.15 K, 12155 kPa	919.8
346.15 K, 12174 kPa	920.1
347.15 K, 6655 kPa	774
347.15 K, 6657 kPa	773.9
347.15 K, 12515 kPa	919.8
347.15 K, 12527 kPa	919.7
347.15 K, 12547 kPa	920
348.15 K, 6890 kPa	773.9
348.15 K, 6893 kPa	773.9
348.15 K, 12887 kPa	919.8
348.15 K, 12899 kPa	919.6
348.15 K, 12919 kPa	919.9
349.15 K, 7127 kPa	773.9
349.15 K, 7130 kPa	773.8
349.15 K, 13259 kPa	919.7
349.15 K, 13271 kPa	919.6
349.15 K, 13292 kPa	919.8
350.15 K, 7364 kPa	773.8
350.15 K, 7368 kPa	773.8
350.15 K, 13631 kPa	919.6
350.15 K, 13643 kPa	919.5
350.15 K, 13664 kPa	919.7
351.15 K, 7602 kPa	773.8
351.15 K, 7606 kPa	773.7
351.15 K, 14004 kPa	919.5
351.15 K, 14015 kPa	919.4
351.15 K, 14036 kPa	919.6
352.15 K, 7841 kPa	773.7
352.15 K, 7845 kPa	773.6
352.15 K, 14377 kPa	919.4
352.15 K, 14387 kPa	919.3
352.15 K, 14409 kPa	919.6
353.15 K, 8080 kPa	773.7
353.15 K, 8084 kPa	773.6
353.15 K, 14750 kPa	919.3
353.15 K, 14761 kPa	919.2
353.15 K, 14783 kPa	919.5
354.15 K, 8320 kPa	773.6
354.15 K, 8324 kPa	773.5
354.15 K, 15123 kPa	919.2
354.15 K, 15133 kPa	919.1
354.15 K, 15157 kPa	919.4
355.15 K, 8560 kPa	773.6
355.15 K, 8565 kPa	773.5
355.15 K, 15496 kPa	919.1
355.15 K, 15507 kPa	919
355.15 K, 15531 kPa	919.3
356.15 K, 8801 kPa	773.5
356.15 K, 8806 kPa	773.4
356.15 K, 15869 kPa	919.1
356.15 K, 15880 kPa	919
356.15 K, 15904 kPa	919.2
